Where two headings read alike, the source gives them in different places.
Experiments:
[1] = Ross-Miles foam height assay of aldonamides (Examples 81-84); format: physicochemical; details: 0.1% aldonamide, 40° C. (if not soluble, about 5°-10° C. above Krafft point), 0 ppm hardness; for Foam Height Final: after 10 minutes
Method: In the Ross-Miles method, 200 mL of a suffactant solution contained in a pipette of specified dimensions with a 2.9 -mm-i.d. orifice is allowed to fall 90 cm onto 50 mL of the same solution contained in a cylindrical vessel maintained at a given temperature by means of a water jacket. The height of the foam produced in the cylindrical vessel is read immediately after all the solution has run out of the pipette and then again after a given amount of time.
Using this method, the foam production (initial foam height in mm) and foam stability (final foam height after 10 minutes in mm) were measured at 0.1% aldonamtde concentration, 40° C. and 0 ppm (parts per million) hardness.

[2] = Clarity of prototype shampoo compositions with sodium lauryl sulfate (Example 87); format: physicochemical; details: room temperature, 6 months
Method: (§1) The prototype shampoo composition is as follows:
(§2) The above formulations were prepared by admixing the above ingredients in listed order and heating the mixture to about 80° C. with rapid stirring. The mixture was then cooled to about 40° C., placed in a clear jar and stored at room temperature for 6 months.

[3] = Viscosity of prototype shampoo compositions with sodium lauryl sulfate, Brookfield Digital Viscometer (Example 88); format: physicochemical; details: vs no thickener
Method: as §1, §2
It is well known that the viscosity of a liquid composition comprising of anionic surfactant can be modified by the addition of inorganic salts, such as sodium chloride. However, in the absence of an organic modifier, high levels of salt may be necessary to achieve the required viscosity which may lead to problems of storage at cold temperature or even salting out certain ingredients. In practice, however, the viscosity of a liquid composition is modified by the simultaneous addition of thickener and small amounts of inorganic salt (viscosity cobuilder). The combined effect is greater than either one alone. The viscosity of the above prototype shampoo composition comprising various amounts of heteroatom containing alkyl aldonamide compound is as follows: […]

[4] = Krafft point determination; format: physicochemical; details: 0.1% in water
Method: The temperature at and above which surfactants begin to form micelles instead of precipitates is referred to as the Krafft point (Tk) and at this temperature the solubility of a surfactant becomes equal to its CMC (numerical value at which micelles are formed).
The Krafft point was measured by preparing 650 ml of a 0.1% or 1.0% dispersion of aldonamide in water by weight. If the surfactant was soluble at room temperature, the solution was slowly cooled to 0° C. […] (less than zero). If it precipitated out of solution, the temperature at which precipitation occurs was taken as the Krafft point.
If the surfactant was insoluble at room temperature, the dispersion was slowly heated until the solution became homogeneous. It was then slowly cooled until precipitation occurred. The temperature at which the surfactant precipitates out of solution upon cooling was taken as the Krafft point.

[5] = Effectiveness in reducing surface tension (Example 93); format: physicochemical; details: 60 °C, estimated by extrapolation
Source text: As mentioned before, surface tension reduction depends on the replacement of water molecules at the interface by surfactant molecules, therefore the effectiveness of a surfactant in reducing interfacial surface tension should reflect the saturated concentration of surfactant at the interface relative to that in bulk liquid phase. During this process the surface tension of water steadily decreases as bulk phase surfactant concentration increases. This will continue until the concentration reaches the critical micelle concentration (CMC), above which the surface tension remains nearly unchanged and the interface is saturated with surfactant. The surface tension at the CMC is therefore very close to the minimum interfacial tension or maximum surface pressure that the system can achieve. The surface pressure at this point, IIcmc, is a suitable measure of the effectiveness of a surfactant in reducing surface tension and is given as:
.PI.cmc 20+2.3nRT(Γmax) log [CMC/C20 ]
n=1 which represents the number of ions whose surface concentration changes with the change in liquid phase suffactant concentration.
CMC/C20 =is the ratio of the critical micelle concentration to the bulk phase surfactant concentration necessary to reduce the surface tension of water by 20 dyn/cm.

[6] = Effectiveness of adsorption, surface excess concentration at surface saturation (Example 94); format: physicochemical; details: 60 °C, estimated by extrapolation
Source text: The surface excess concentration at surface saturation (Γmax) is defined as a measure of the effectiveness of surfactant adsorption at the water/air interface and represents the maximum value to which adsorption can be obtained. Effectiveness of adsorption is related to the interfacial area occupied by the surfactant molecule. The smaller the effective cross-sectional area of a surfactant at the interface, the greater its effectiveness of adsorption. The effectiveness of adsorption is an important factor in determining surfactant properties such as detergency, foaming, wetting or emulsification. While not wishing to be bound by theory, it is believed that surfactants that absorb effectively at the interface tend have tightly packed coherent interfacial films and often provide better surfactant benefits than those with loosely packed noncoherent films. The effectiveness of adsorption of C8 /C10 oxypropyl D-gluconamide was determined using the Gibbs equation given as: […]
ergs/cm^2 (which is equivalent to the slope of a plot of γ

[7] = Area per molecule at the water/air interface (Example 95); format: physicochemical; details: 60 °C, estimated by extrapolation
Source text: The area per molecule of a surfactant at the water/air interface provides information on the degree of packing and the orientation of the adsorbed surfactant molecule. While not wishing to be bound by theory, it is believed that surfactants that have small area per molecule values tend to pack more closely at the interface than those with large area per molecule values. From the surface excess concentration at surface saturation (Γmax), the area per molecule (am) of C8 /C10 oxypropyl D-gluconamide was determined and is given by:
am =1×10^16 /Nav Γmax

[8] = 25 °C, Rosen; cited from earlier work
[9] = Rosen, cited from earlier work
[10] = Rosen, cited from earlier work; remark: listed apart in the source
[11] = Rosen, cited from earlier work; remark: listed apart in the source
[12] = Foam stability and enhancement of prototype shampoo (sodium/ammonium lauryl sulfate), Ross-Miles Foam Height assay (Example 86); format: physicochemical; details: 45° C., 4.0% additive in prototype shampoo
Method: The results were compared to identical compositions comprising petrochemitcally derived foam stabilizing agents, in particular, alkanolamides and alcohol ethoxylates. The prototype shampoo composition is as follows:
The compositions were prepared by admixing the ingredients in listed order with rapid stirring at 45°-50° C. Foam stability and enhancement were measured at 0.1% based on sodium and ammonium lauryl sulfate (0.16% total solids) at 45° C. and 0 or 120 parts per million (ppm) hardness calcium:magnesium ion 2:1.

[13] = Viscosity of prototype shampoo compositions of Example 86, Brookfield Digital Viscometer; format: physicochemical; details: 4.0% thickener, Example 86 shampoo, 22° C.
Source text: The results are as follows:

[14] = Foam stability and enhancement of sodium dodecyl benzene sulfonate, Ross-Miles method (Example 85); format: physicochemical; details: 30 minutes, 10:90 mole %, 35° C., pH 10
Method: The triolein/calcium stearate mixture was dispersed to the above solutions using a high speed shear mixer at 60° C. and then cooled to 35° C. The triolein/calcium stearate mixture represents an extreme type of antifoam behavior found in sebum soil.
The foaming behavior of the above surfactants was determined by the Ross-Miles Foam Height Assay (Ross, J. and Miles, G. D. Am Soc. for Testing Material Method Dl173-63 Philadelphia, Pa. (1953); Oil & Soap (1958) 62:1260) and the cylinder shaking method.
In the Ross-Miles method, 200 mL of a surfactant solution contained in a pipette of specified dimensions with a 2.9-mm-i.d. orifice is allowed to fall 90 cm onto 50 mL of the same solution contained in a cylindrical vessel maintained at a given temperature by means of a water jacket. The height of the foam produced in the cylindrical vessel is read after 30 minutes has elapsed.
The foam stability and enhancement of the heteroatom containing alkyl aldonamides was further determined using a 10:90 mole percent solution of C8 /C10 oxypropyl D-gluconamide (C8 /C10 OPG): sodium dodecyl benzene sulfonate (C12 LAS) and compared to identical solutions of dodecyl D-gluconamide (C12 Gluc): sodium dodecyl benzene sulfonate in the presence and absence of the triolein/calcium stearate antifoam.

[15] = 5.0% thickener in […] sodium lauryl sulfate shampoo
[16] = 3.0% thickener in […] sodium lauryl sulfate shampoo

Compound: CCCCCCCCCNC(=O)[C@H](O)[C@@H](O)[C@H](O)[C@H](O)CO [C9 D-Gluconamide]
- Foam Height Initial [1]: 0 mm
- Foam Height Final [1]: 0 mm
- Appearance (Time) ([2]; 4.0% thickener in […] sodium lauryl sulfate shampoo): Precipitate (2 weeks)
- Appearance (Time) [2, 15]: Precipitate (2 weeks)

Compound: CCCCCCCCCCNC(=O)[C@H](O)[C@@H](O)[C@H](O)[C@H](O)CO [C10 D-Gluconamide]
- Foam Height Initial [1]: 199 mm
- Foam Height Final [1]: 6 mm
- Appearance (Time) [2, 16]: Precipitate (1 week)
- Appearance (Time) [2, 15]: Precipitate (5 days)

Compound: CCCCCCCCCCCCOCCCNC(=O)[C@H](O)[C@@H](O)[C@H](O)[C@H](O)CO [C12 Oxypropyl D-Gluconamide]
- Foam Height Initial [1]: 200 mm
- Foam Height Final [1]: 110 mm
- Appearance (Time) [2, 16]: Clear
- Appearance (Time) [2, 15]: Precipitate (5 months)
- Increase (viscosity) ([3]; 3.0% thickener): 120 ×
- Increase (viscosity) ([3]; 5.0% thickener): 1373 ×

Compound: CCCCCCCCCCCCOCCCNC(=O)[C@H](O)[C@@H](O)[C@H](O[C@@H]1O[C@H](CO)[C@H](O)[C@H](O)[C@H]1O)[C@H](O)CO [C12 Oxypropyl D-Lactobionamide, Dodecyloxypropyl D-Lactobionamide]
- Foam Height Initial [1]: 165 mm
- Foam Height Final [1]: 154 mm
- Krafft Point (0.1%) [4]: < 0 °C
- Increase (viscosity) ([3]; 3.0% thickener): 23 ×
- Increase (viscosity) ([3]; 5.0% thickener): 97 ×

Compound: CCCCCCCCCCCCOCCOCCOCCOCCOCCO [Dodecylpenta(oxyethylene) Ether]
- .PI.cmc (surface pressure) [5]: 40.7 dyn/cm
- Γmax (surface excess concentration at surface saturation) [6]: 3.16 × 10^-10 mole/cm^2
- am (area per molecule) [7]: 52.3 Å^2
- pC20 [8]: 5.37
- .PI.cmc (surface pressure) ([9]; 25 °C): 41.5 dyn/cm
- CMC/C20 ([9]; 25 °C): 15.0
- .PI.cmc (surface pressure) ([9]; 40 °C): 41.2 dyn/cm
- Γmax (surface excess concentration at surface saturation) ([10]; 25 °C): 3.31 × 10^-10 mole/cm^2
- Γmax (surface excess concentration at surface saturation) ([10]; 40 °C): 3.28 × 10^-10 mole/cm^2
- am (area per molecule) ([11]; 25 °C): 50.1 Å^2
- am (area per molecule) ([11]; 40 °C): 50.6 Å^2

Compound: CCCCCCCCCCCCOCCOCCOCCOCCO [Dodecyltetra(oxyethylene) Ether]
- .PI.cmc (surface pressure) [5]: 40.7 dyn/cm
- Γmax (surface excess concentration at surface saturation) [6]: 3.01 × 10^-10 mole/cm^2
- am (area per molecule) [7]: 53.3 Å^2
- pC20 [8]: 5.34
- .PI.cmc (surface pressure) ([9]; 25 °C): 43.4 dyn/cm
- CMC/C20 ([9]; 25 °C): 13.7
- .PI.cmc (surface pressure) ([9]; 40 °C): 42.0 dyn/cm
- CMC/C20 ([9]; 40 °C): 11.8
- Γmax (surface excess concentration at surface saturation) ([10]; 25 °C): 3.63 × 10^-10 mole/cm^2
- Γmax (surface excess concentration at surface saturation) ([10]; 40 °C): 3.41 × 10^-10 mole/cm^2
- am (area per molecule) ([11]; 25 °C): 45.7 Å^2
- am (area per molecule) ([11]; 40 °C): 48.7 Å^2

Compound: CCCCCCCCCCCCOCCOCCOCCO [Dodecyltri(oxyethylene) Ether]
- .PI.cmc (surface pressure) [5]: 41.4 dyn/cm
- Γmax (surface excess concentration at surface saturation) [6]: 3.83 × 10^-10 mole/cm^2
- am (area per molecule) [7]: 45.4 Å^2
- pC20 [8]: 5.34
- .PI.cmc (surface pressure) ([9]; 25 °C): 44.1 dyn/cm
- CMC/C20 ([9]; 25 °C): 11.4
- .PI.cmc (surface pressure) ([9]; 40 °C): 43.1 dyn/cm
- Γmax (surface excess concentration at surface saturation) ([10]; 25 °C): 3.98 × 10^-10 mole/cm^2
- Γmax (surface excess concentration at surface saturation) ([10]; 40 °C): 3.90 × 10^-10 mole/cm^2
- am (area per molecule) ([11]; 25 °C): 41.7 Å^2
- am (area per molecule) ([11]; 40 °C): 42.5 Å^2

Compound: CCCCCCCCCCCC(=O)N(CCO)CCO [Lauramide DEA, lauramide diethanolamine]
- Final FH after 60 Min. ([12]; 0 ppm hardness): 151 mm
- Initial FH ([12]; 0 ppm hardness): 190 mm
- Final FH after 60 Min. ([12]; 120 ppm hardness): 126 mm
- Initial FH ([12]; 120 ppm hardness): 159 mm
- Viscosity [13]: 2376 Centipoise

Compound: Coco D-Gluconamide
- Appearance (Time) [2, 16]: Precipitate (1 day)
- Appearance (Time) [2, 15]: Precipitate (2 hours)

Compound: Cocoaminopropyl D-Gluconamide
- Foam Height Initial [1]: 186 mm
- Foam Height Final [1]: 182 mm
- Appearance (Time) [2, 16]: Clear
- Appearance (Time) [2, 15]: Clear

Compound: Octyl/Decyloxypropyl D-Lactobionamide [C8 /C10 Oxypropyl D-Lactobionamide]
- Foam Height Initial [1]: 168 mm
- Foam Height Final [1]: 158 mm
- Krafft Point (0.1%) [4]: < 0 °C
- Appearance (Time) [2, 16]: Clear
- Appearance (Time) [2, 15]: Clear

Compound: cocoamide monoethanolamine [Cocoamide MEA]
- Final FH after 60 Min. ([12]; 0 ppm hardness): 70 mm
- Initial FH ([12]; 0 ppm hardness): 178 mm
- Final FH after 60 Min. ([12]; 120 ppm hardness): 53 mm
- Initial FH ([12]; 120 ppm hardness): 148 mm
- Viscosity [13]: 1720 Centipoise

Compound: sodium dodecyl benzene sulfonate [C12 LAS]
- Foam Height, No Antifoam [14]: 131 mm
- Foam Height, With Antifoam ([14]; triolein/calcium stearate 1 g/L): 61 mm

Reference: US5641480A, “Hair care compositions comprising heteroatom containing alkyl aldonamide compounds” (Lever Brothers Company, Division of Conopco, Inc., priority 1994, dated 1997)
